Source: US20180369230A1, “TARGETED SELECTION OF PATIENTS FOR TREATMENT WITH SPECIFIC CORTISTATIN DERIVATIVES” (President and Fellows of Harvard College, priority 2015, published 2018)

Key:
[1] = tested on: RUNX1 target genes; assay: Determination of gene expression levels; format: cell-based, human; settings: SET-2, MOLM-14 and MV4;11
Method: Leukemia cells were plated (12-well) in triplicate at 500,000-800,000 cells per ml and incubated in the presence of vehicle (0.1% DMSO) or CA (25 nM 3 h for K562, MOLM-14 and MV4;11; 10 nM 24 h for MOLM-14; 25 nM 4 h for SET-2, n=3 for each cell line). Cells were then washed twice with cold PBS, and snap frozen. RNA was isolated (RNeasy Plus Microkit, Qiagen or TRIzol, Life Technologies), processed, and, for K562, MOLM-14 and MV4;11, hybridized to the Human U133 Plus 2.0 microarray (Affymetrix). Microarrays were processed with Bioconductor packages affyQCReport for quality control and affy for background correction, summarization, and normalization using rma. […] SET-2 and HCT 116 gene expression was measured by RNA-seq. […] Reads were aligned in two passes, first with rnaStar (v.2.3.0e) then with BWA (v.0.7.5a) for remaining unmapped reads, both using default parameters. Mapped reads were merged and counted using HTSeq (v.0.5.3p3) with -s yes -m intersection-strict. […] Samples were run in a single lane on an Illumina HiSEQ 2000 sequencer with a single read flow cell using 1×50-bp reads and a 6-cycle index read. Reads were mapped to the hg19 reference genome using Tophat2 v.2.0.6 with custom settings including the setting of -library-type fr- firstrand to appropriately account for the stranded nature of the protocol. […]

[2] = tested on: MOLM-16; assay: Cellular proliferation assay; format: cell-based; settings: AMkL < 1
Method: (§1) All suspension cells were plated (96-well) in triplicate at 5,000-30,000 cells per well for testing (n=3). Viable cell number was estimated after 3, 7 and 10 days by counting viable cells from one vehicle well, generating a cell dilution series, transferring […] per well in duplicate to a 384-well plate, and performing a linear regression to CellTiter-Glo (Promega) response (SPECTRAmax M3, Molecular Devices). Cells from all wells were also fourfold diluted in media and transferred in duplicate for CellTiter-Glo measurement. On days 3 and 7, an equal volume for all wells was split-back with fresh media and compound, such that the resulting cell density for the vehicle well matched the initial seeding density. For days 7 and 10, estimated cell number represents the split-adjusted theoretical cell number. HCT116 were plated (96-well) in triplicate at 250 cells per well. Cells were incubated in the presence of vehicle, 1 μM paclitaxel, or compound. On day 7, CellTiter-Blue (Promega) response was measured and values were normalized to vehicle (100% growth) and paclitaxel (0% growth). For growth assays with inhibitors, n=3 for each concentration with two independent experiments.

[3] = tested on: MV4; 11; assay: Cellular proliferation assay; format: cell-based
Method: as §1

[4] = tested on: RS4; 11; assay: Cellular proliferation assay; format: cell-based; settings: B-ALL, MLL-AF4
Method: as §1

[5] = tested on: OCI-LY1; assay: Cellular proliferation assay; format: cell-based; settings: DLBCL
Method: as §1

[6] = tested on: HCT116; assay: Cellular proliferation assay; format: cell-based; settings: Colorectal, β-catenin
Method: as §1

[7] = tested on: ALL-SIL; assay: Cellular proliferation assay; format: cell-based; settings: T-ALL, TLX1 overexpression
Method: as §1

[8] = tested on: ME-1; assay: Cellular proliferation assay; format: cell-based; settings: ME-1 (CBFB-MYH11); 10-day treatment; read-out: G150 after 10 days of treatment
Method: as §1

[9] = tested on: SET-2; assay: Cellular proliferation assay; format: cell-based
Method: as §1

[10] = tested on: REH; assay: Cellular proliferation assay; format: cell-based; settings: pre B-ALL, ETV6-RUNX1
Method: as §1

[11] = tested on: CMK-86; assay: Cellular proliferation assay; format: cell-based
Method: as §1

[12] = tested on: leukemia cell lines; assay: Cellular proliferation assay; format: cell-based; settings: K562 and HEL compared to MEG-01 and SET-2 (BCR-Abl or JAK2V617F)
Method: as §1

[13] = tested on: MKPL-1; assay: Cellular proliferation assay; format: cell-based; settings: MKPL-1 (RBM6-CSF1R), adult non-DS-AMKL; 10-day treatment; read-out: G150 after 10 days of treatment
Method: as §1

[14] = tested on: megakaryocytic cell lines; assay: Cellular proliferation assay; format: cell-based; settings: read-out: 50% maximal growth inhibitory concentrations (GI50s); 5 out of 5 megakaryocytic cell lines tested
Method: as §1

[15] = tested on: HL-60; assay: Cellular proliferation assay; format: cell-based; settings: AML/APL
Method: as §1

[16] = tested on: UKE-1; assay: Cellular proliferation assay; format: cell-based; settings: AML/MPN, JAK2V617F
Method: as §1

With Cortistatin A the “expression of RUNX1 target genes including CEBPA, IRF8 and NFE2” value [1] was “upregulated”, the GI50 [2] was < 1 nM and the IC50 ([3]; 11 (MLL-AF4), 10-day treatment, read-out: G150 after 10 days of treatment) was 6 nM. For the same substance, the GI50 ([3]; 11, AML, MLL-AF4) was 6 nM, the GI50 [4] was 3 nM and the GI50 [5] was 37 nM. The GI50 [6] was > 1000 nM, the GI50 [7] was 2 nM and the IC50 [8] was 1 nM. The IC50 ([9]; SET-2 (JAK2V617F), 10-day treatment, read-out: G150 after 10 days of treatment) was 4 nM, the GI50 ([9]; SET-2, AMkL/MPN, JAK2V617F) was 4 nM and the “proliferation, theoretical cell number over time” value ([9]; SET-2, FIG. 4) was “inhibits the proliferation”. It also gave a GI50 [10] of 1 nM, an IC50 ([11]; CMK-86 (GATA1s), pediatric DS-AMKL, 10-day treatment, read-out: G150 after 10 days of treatment) of 8 nM and a GI50 ([11]; CMK-86, AMkL, GATA1s) of 8 nM. For the same substance, the “difference in sensitivity, megakaryocytic vs erythroleukemia cell lines containing the same mutations” value [12] was “more than 100 fold”, the IC50 [13] was 1 nM and the IC50 [14] was < 10 nM. It also gave a GI50 [15] of 7 nM and a GI50 [16] of 7 nM.
